How the values were obtained:
[1] = Particle size by dynamic light scattering; type: physicochemical; conditions: Zetasizer Nano ZS90, after high pressure homogenization
Excerpt: The term “particle size distribution” is intended to mean the span between the smallest and largest calcipotriol monohydrate crystal as determined by dynamic light scattering (also known as photon correlation spectroscopy) using a Zetasizer Nano ZS or ZS90 according to the manufacturer's instructions (available from Malvern Instruments, UK). Dynamic light scattering determines the size of solid particles suspended in a liquid by illuminating the particles with a laser and analysing the intensity fluctuations in the scattered light resulting from the Brownian motions of the particles in the liquid. Intensity fluctuations are correlated to particle size in that larger particles move more slowly than smaller particles, i.e. the intensity fluctuation is slower.

[2] = DSC analysis of the amount of amorphous calcipotriol; type: physicochemical; conditions: two batches, DSC at 100, 300 and 500° C./min under N2
Description: The amount of amorphous calcipotriol generated in this method was determined on two batches of calcipotriol nanocrystals prepared by the method using DSC analysis at a heating rate of 100° C., 300° C. and 500° C./min. under a N2 atmosphere. The instrument used for the analysis was a Perkin Elmer DSC 8500.

[3] = tested on: gene encoding cathelicidin; experiment: Cathelicidin gene activation in reconstructed human epidermis, ointments; type: cell-based; conditions: 5% vs 10% or 15% by weight of glycerol in the composition
Excerpt: In psoriasis, the level of cathelicidin is increased in lesional skin of psoriasis patients. […] This finding has been utilized to develop an assay in which the uptake and biological activity of calcipotriol in human keratinocytes from the tested compositions has been determined by measuring the level of induction of the gene encoding cathelicidin.
Compositions A, C and D prepared as described in Example 2 above were applied topically in triplicate on reconstructed human epidermis consisting of normal human keratinocytes cultured for 12 days on 0.5 cm^2 polycarbonate filters (available from SkinEthic® Laboratories, Nice, France) in an amount of 10 μl. The tissue was treated for two days followed by separation of the epidermis from the polycarbonate filter and snap-frozen in liquid nitrogen. RNA was extracted from the cells and cDNA synthesized by conventional procedures. qPCR was then performed using the following assays from Applied Biosystems: CAMP Hs0018038_ml and GAPDH Hs99999905_ml. The expression levels of cathelicidin were normalized to GAPDH and a relative quantification was made by comparison with Daivonex® ointment.

[4] = tested on: IL-1α; experiment: Release of IL-1α with glycerol in a calcipotriol ointment; conditions: 5%, 10% and 15% by weight of glycerol in a calcipotriol ointment
[5] = M. Hannuksela et al., Contact Dermatitis 1, 1975; cited from earlier work

## C=C1/C(=C\C=C2/CCC[C@]3(C)[C@@H]([C@H](C)/C=C/[C@@H](O)C4CC4)CC[C@@H]23)C[C@@H](O)C[C@@H]1O [calcipotriol monohydrate nanocrystals, Calcipotriol monohydrate]
[1]
  mean particle size: 350-400 nm
  particle size distribution: 200-600 nm
[2]
  amount of amorphous calcipotriol: only insignificant amounts of amorphous calcipotriol

## OCC(O)CO [glycerol]
[3]
  expression of cathelicidin / biological activity of calcipotriol: potentiating the biological activity of calcipotriol
[4]
  release of IL-1α: reduce the release of IL-1α in a dose-dependent manner

## CC(O)CO (stereo not drawn) [propylene glycol]
[5]
  number of irritant reactions: 12.5%

Reference: patent US20130039952A1, “CALCIPOTRIOL MONOHYDRATE NANOCRYSTALS” (LEO PHARMA A/S, priority 2009, published 2013)
